Among the data in US5344843A, “Cat-1 inhibitors, pharmaceutical compositions and methods of use” (Hoffman-La Roche Inc., priority 1992, dated 1994) are inhibition and IC50 values, retold here.

For orientation: inhibition means the share of the control response that was lost under treatment. One may read the IC50 as the concentration needed to halve the response being measured.

Where a name gives a salt, the structure may show the parent alone.

The first test addresses T1, CAT-1 (carnitine acyltransferase 1) (Rattus norvegicus, UniProt Q63704).
T1 construct: This preparation is used as the isolated mitochondrial preparation; from tissue; host or cells: rat heart (atria removed), isolated mitochondria
T1 sequence (Q63704 1-772): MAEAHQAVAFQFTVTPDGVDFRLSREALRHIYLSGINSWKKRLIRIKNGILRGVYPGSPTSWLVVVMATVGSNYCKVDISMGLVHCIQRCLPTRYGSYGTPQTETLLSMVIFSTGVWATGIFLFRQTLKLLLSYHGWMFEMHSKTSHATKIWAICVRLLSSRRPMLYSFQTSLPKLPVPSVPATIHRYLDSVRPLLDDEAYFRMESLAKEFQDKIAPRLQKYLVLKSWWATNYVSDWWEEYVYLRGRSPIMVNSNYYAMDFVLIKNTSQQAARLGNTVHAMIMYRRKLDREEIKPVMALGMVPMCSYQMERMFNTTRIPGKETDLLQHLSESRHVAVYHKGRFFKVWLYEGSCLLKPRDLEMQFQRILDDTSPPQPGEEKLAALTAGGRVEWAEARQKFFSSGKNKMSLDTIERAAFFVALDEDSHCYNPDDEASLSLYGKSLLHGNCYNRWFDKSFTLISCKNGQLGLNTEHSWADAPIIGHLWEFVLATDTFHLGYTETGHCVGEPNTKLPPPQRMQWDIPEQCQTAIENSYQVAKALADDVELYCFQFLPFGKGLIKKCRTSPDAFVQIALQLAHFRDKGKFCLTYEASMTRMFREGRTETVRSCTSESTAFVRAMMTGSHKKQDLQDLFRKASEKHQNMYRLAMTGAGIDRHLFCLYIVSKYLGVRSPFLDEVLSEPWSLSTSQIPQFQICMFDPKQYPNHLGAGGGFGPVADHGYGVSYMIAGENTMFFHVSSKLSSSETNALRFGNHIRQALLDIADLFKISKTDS
In words: Primary Screen--Inhibition of CAT-1 in isolated mitochondria.
Details: not given
The test is classed as biochemical. The arrangement: inhibition: dose or concentration left out as unconfirmed.
`O=C(O)C(=O)c1cc(Cl)c(OCCOc2ccc3ccccc3c2)c(Cl)c1` [Example 189, 3,5-dichloro-4-[2-(2-naphthalenyloxy)ethoxy]-alpha-oxobenzeneacetic acid (6:1) molar benzene solvate] yielded an inhibition of 28%. For the compound `Cc1nnc2n1-c1sc(C#CCOc3ccc(C(=O)C(=O)O)cc3)cc1C(c1ccccc1Cl)=NC2` [Example 294, 4-[3-[4-(2-chlorophenyl)-9-methyl-6H-thieno[3,2-f][1,2,4]triazolo[4,3-a][1,4]diazepin-2-yl]-2-propynyloxy]-alpha-oxobenzeneacetic acid], half-maximal inhibition (IC50) required 0.3 µM.

`O=C(O)C(=O)c1ccc(OCC(=O)N2CCN(CCc3ccccc3C(F)(F)F)CC2)cc1` [Example 253, alpha-oxo-4-[2-oxo-2-[4-[2-[2-(trifluoromethyl)phenyl]ethyl]-1-piperazinyl]ethoxy]benzeneacetic acid (1:1) hydrochloride] gave an IC50 of 0.5 µM.

The same test, now with this note: @ 10 μM.
The compound `CC(C)(C)c1cc(C(=O)CCCCOc2ccc(C(=O)C(=O)O)cc2)cc(C(C)(C)C)c1O` [Example 266, 4-[5-[3,5-bis(1,1-dimethylethyl)-4-hydroxyphenyl]-5-oxopentyloxy]-alpha-oxobenzeneacetic acid] came in with an inhibition at 10 µM of 48%.

The test is the same for the next values; noted with them: rat heart mitochondria, reduction of palmitoyl carnitine formation by 50%; read-out: Primary Screen IC50.
Turning to `C=CCO/N=C(/C(=O)O)c1ccc(OCCOc2ccc3ccccc3c2)s1` [Example 312, (Z)-5-[2-(2-naphthalenyloxy)ethoxy]-alpha-[(2-propenyloxy)imino]-2-thiopheneacetic acid], the IC50 turned out to be 0.1 µM. As for `O=C(O)C(=O)c1ccc(OCCOc2ccc3cc4ccccc4cc3c2)cc1` [Example 108, 4-[[2-(2-anthracenyloxy)ethyl]oxy]-alpha-oxobenzeneacetic acid], the IC50 amounted to 0.2 µM.

Take `O=C(O)C(=O)c1ccc(OCCOc2cc3ccccc3cc2OCCOc2ccccc2)cc1` [Example 116, alpha-oxo-4-[[2-[3-(2-phenoxyethoxy)-2-naphthalenyloxy]ethyl]oxy]benzeneacetic acid]: the IC50 was found to be 0.65 µM.

Turning to `O=C(O)C(=O)c1ccc(OCCCCCCc2cccc(OCc3ccccc3)c2OCc2ccccc2)cc1` [Example 259, 4-[6-[2,3-bis-(phenylmethoxy)phenyl]hexyloxy]-alpha-oxobenzeneacetic acid], the IC50 was 1.2 µM. As to `O=C(O)C(F)(F)c1ccc(OCCOc2ccccc2)cc1` [Example 11, alpha, alpha-difluoro-4-[[2-(phenoxy)ethyl]oxy]benzeneacetic acid], the IC50 stood at 18 µM. The same measure, in the same setting: next, `O=C(O)C(=O)c1ccc(OCCCCc2ccncc2)cc1` [Example 125, alpha-oxo-4-[4-(4-pyridinyl)butoxy]benzeneacetic acid]: 2 µM; `CN(C)/N=C(/C(=O)O)c1ccc(OCCOc2ccc3ccccc3c2)cc1` [Example 320, (E)-alpha-(dimethylhydrazono)-4-[2-(2-naphthalenyloxy)ethoxy]benzeneaceticacid]: 1.8 µM.

As to `O=C(O)C(=O)c1ccc(OCCCCSc2ccc3ccccc3c2)cc1` [Example 92, 4-[[4-(2-naphthalenylthio)butyl]oxy]-alpha-oxobenzeneacetic acid], the IC50 was 3.5 µM. Still for that read-out and setting: the result for `CCO/N=C(\C(=O)O)c1ccc(OCCOc2ccc3ccccc3c2)s1` [Example 310, (E)-alpha-(ethoxyimino)-5-[2-(2-naphthalenyloxy)ethoxy]-2-thiopheneacetic acid] reads 0.24 µM; that for `O=C(O)C(=O)c1ccc(OCCOc2cc3ccccc3cc2O)cc1` [Example 121, 4-[[2-(3-hydroxy-2-naphthalenyloxy)ethyl]oxy]-alpha-oxobenzeneacetic acid], 0.3 µM. For the compound `CC1(C)OCC(COC(=O)C(=O)c2ccc(OCCOc3ccc4ccccc4c3)cc2)O1` (racemic) [Example 169, rac.-4-[[2-(2-naphthalenyloxy)ethyl]oxy]-alpha-oxobenzeneacetic acid (2,2-dimethyl-1,3-dioxolan-4-yl)methyl ester], the half-maximal inhibitory concentration (IC50) is 3.5 µM. Still for that read-out and setting: next, `O=C(O)C(=O)c1ccc(OCCCc2ccc(F)cc2)cc1` [Example 27, 4-[[3-(4-fluorophenyl)propyl]oxy]-alpha-oxobenzeneacetic acid]: 3 µM; `O=C(O)C(=O)c1ccc(OCc2cc3ccccc3o2)cc1` [Example 141, 4-[[2-benzofuranyl)methoxy]-alpha-oxobenzeneacetic acid]: 0.7 µM; `O=C(O)C(=O)c1ccc(OC/C=C/c2ccc(F)cc2)cc1` [Example 29, (E)-4-[[3-(4-fluorophenyl)-2-propenyl]oxy]-alpha-oxobenzeneacetic acid]: 0.25 µM. On to `O=C(O)C(=O)c1ccc(OCCCCCCOc2ccccc2)cc1` [Example 75, alpha-oxo-4-[[(6-phenoxy)hexyl]oxy]benzeneacetic acid], for which the IC50 is 10 µM. For `O=C(O)/C(=N\OCc1ccccc1)c1ccc(OCCOc2ccc3ccccc3c2)s1` [Example 316, (E)-5-[2-(2-naphthalenyloxy)ethoxy]-alpha-[(phenylmethoxy)imino]-2-thiopheneacetic acid], the IC50 turned out to be 0.5 µM. In the case of `O=C(O)C(=O)c1c(Cl)cc(OCCOc2ccc3ccccc3c2)cc1Cl` [Example 191, 2,6-dichloro-4-[2-(2-naphthalenyloxy)ethoxy]-alpha-oxobenzeneacetic acid], the IC50 came to 6.7 µM. Consider `O=C(O)C(=O)c1ccc(OCCOc2cc3ccccc3cc2OCCO)cc1` [Example 118, 4-[[2-[3-(2-hydroxyethoxy)-2-naphthalenyloxy]ethyl]oxy]-alpha-oxobenzeneacetic acid], for which the IC50 was 0.25 µM. Same read-out and setting: next, `O=C(O)C(=O)c1ccc(OCCCCCOc2ccccc2)cc1` [Example 73, alpha-oxo-4-[[(5-phenoxy)pentyl]oxy]benzeneacetic acid]: 5 µM. Same read-out and setting: the result for `O=C(O)C(=O)c1ccc(OCCCNC(=O)c2ccc3ccccc3c2)cc1` [Example 140, 4-[[3-(2-naphthoylamino)propyl]oxy]-alpha-oxobenzeneacetic acid] reads 0.15 µM; that for `O=C(O)C(=O)c1ccc(OCc2ccc3ccccc3c2)cc1` [Example 155, 4-[(2-naphthalenyl)methoxy]-alpha-oxobenzeneacetic acid], 0.22 µM. Same read-out and setting: the result for `O=C(C(=O)N(CCO)CCO)c1ccc(OCCOc2ccc3ccccc3c2)cc1` [Example 163, N,N-bis(2-hydroxyethyl)-4-[[2-(2-naphthalenyloxy)ethyl]oxy]-alpha-oxobenzeneacetamide] reads 3.5 µM. Turning to `COC(=O)C(=O)c1ccc(OCCOc2ccc3cc(OC(C)=O)ccc3c2)cc1` [Example 138, 4-[[2-[6-(Acetyloxy)-2-naphthalenyloxy]ethyl]oxy]-alpha-oxobenzeneacetic acid methyl ester], the IC50 stood at 8.9 µM. Same read-out and setting: the result for `NS(=O)(=O)c1ccc(OCCOc2ccc(C(=O)C(=O)O)cc2)cc1` [Example 53, 4-[[2-[4-(aminosulfonyl)phenoxy]ethyl]oxy]-alpha-oxobenzeneacetic acid] reads 4 µM; that for `CC(C)(C)c1cc(SCCCOc2ccc(C(=O)C(=O)O)cc2)cc(C(C)(C)C)c1O` [Example 275, 4-[3-[[3,5-bis(1,1-dimethylethyl)-4-hydroxyphenyl]thio]propoxy]-alpha-oxobenzeneacetic acid], 0.57 µM; that for `O=C(O)C(=O)c1ccc(C#CCNC(=O)c2ccc3ccccc3c2)cc1` [Example 146, 4-[3-[[(2-naphthalenyl)carbonyl]amino]-1-propynyl]-alpha-oxobenzeneacetic acid], 5.5 µM. On the same count and under the same terms, next, `O=C(O)C(=O)c1ccc(OCCOc2ccc3cccnc3c2)cc1` [Example 127, alpha-oxo-4-[[2-(7-quinolyloxy)ethyl]oxy]benzeneacetic acid monohydrate]: 0.26 µM; `O=C(O)C(=O)c1ccc(OCCOc2ccc([N+](=O)[O-])cc2)cc1` [Example 47, 4-[[2-(4-nitrophenoxy)ethyl]oxy]-alpha-oxobenzeneacetic acid]: 3 µM; `O=C(O)C(=O)c1ccc(OCC(O)COc2ccccc2)cc1` (racemic) [Example 80, rac.-4-[[(2-hydroxy-3-phenoxy)propyl]oxy]-alpha-oxobenzeneacetic acid]: 8 µM.

As to `O=C(O)C(=O)c1ccc(OCC#Cc2ccccc2)cc1` [Example 35, alpha-oxo-4-[(3-phenyl-2-propynyl)oxy]benzeneacetic acid], the IC50 worked out at 0.4 µM. For the compound `O=C(O)C(=O)c1ccc(OCC(=O)c2ccccc2-c2ccccc2)cc1` [Example 288, 4-[2-[[1,1'-biphenyl]-2-yl]-2-oxoethoxy]-alpha-oxobenzeneacetic acid], the IC50 was 1.4 µM. For the compound `O=C(O)C(=O)c1ccc(OCCc2ccccc2)cc1` [Example 21, 4-[(2-phenylethyl)oxy]-alpha-oxobenzeneacetic acid], the IC50 stood at 12 µM.
